Key:
Format in all cases: cell-based
[1] = tested on: human peripheric T lymphocytes; assay: DNA synthesis of human T lymphocytes (3[H]-thymidine incorporation); conditions: 72 h incubation; for DNA synthesis of human peripheric T lymphocytes: simultaneous administration of I49 (DP IV inhibitor) and Actinonin (APN inhibitor), FIG. 1
Experimental: The T cells were incubated for 72 h in the presence of said inhibitors and subsequently, the DNA synthesis rate was determined via a measurement of the ^3[H]-thymidin incorporation, as was described by Reinhold et al. [D. Reinhold et al.: “Inhibitors of dipeptidyl peptidase IV induce secretion of transforming growth factor β1 in PWM-stimulated PBMNC and T cells”, Immunology 1997, 91, 354-360].
Human peripheric T cells were incubated over 3 days with the concentrations of the inhibitors shown. Subsequently, ^3[H]-methyl thymidine was added to the culture medium, and the amount of ^3[H]-thymidine inserted into the DNA was measured after further 6 hours.
The T cells were incubated for 72 h in the presence of said inhibitors, and the DNA synthesis rate was determined subsequently by the measurement of the ^3[H]-thymidine incorporation, as was described by Reinhold et al. [D. Reinhold et al.: “Inhibitors of dipeptidyl peptidase IV induce secretion of transforming growth factor β1 in PWM-stimulated PBMNC and T cells”, Immunology 1997, 91, 354-360].
FIG. 3 show a the synergistic and dose-dependent effect of inhibitors of DP IV (I49) and of prolyl oligopeptidase (Boc-Ala-Thia) on the DNA synthesis of human peripheric T lymphocytes. Human T cells were incubated for three days with the concentrations of inhibitors mentioned above. Subsequently, ^3[H]-methyl thymidine was added to the culture medium, and the amount of ^3[H]-thymidine incorporated into the DNA was measured after further 6 hours.
Human T cells were incubated for three days with the concentrations of inhibitors mentioned above. Subsequently, ^3[H]-methyl thymidine was added to the culture medium, and the amount of ^3[H]-thymidine incorporated into the DNA was measured after further 6 hours.

[2] = tested on: human peripheric mononuclear cells (MNZ); assay: DNA synthesis of human peripheric mononuclear cells (3[H]-thymidine incorporation); conditions: 72 h incubation
Experimental: The MNZ were incubated for 72 h in the presence of said inhibitors, and the DNA synthesis rate was determined subsequently by the measurement of the ^3[H]-thymidine incorporation, as was described by Reinhold et al. [D. Reinhold et al.: “Inhibitors of dipeptidyl peptidase IV induce secretion of transforming growth factor β1 in PWM-stimulated PBMNC and T cells”, Immunology 1997, 91, 354-360].
Human MNZ were incubated for three days with the concentrations of inhibitors mentioned above. Subsequently, ^3[H]-methyl thymidine was added to the culture medium, and the amount of ^3[H]-thymidine incorporated into the DNA was measured after further 6 hours.

[3] = tested on: human T cell line KARPAS-299; assay: Proliferation of KARPAS-299 cells (WST-1 cell proliferation assay); conditions: single and simultaneous administration of I49 and APN inhibitors (Actinonin and Probestin); FIG. 8
Experimental: FIG. 8: The KARPAS-299 cells were incubated without addition (control) and in the presence of single inhibitors mentioned above as well as in the presence of combinations thereof, respectively. Subsequently, the number of metabolically active cells was determined by using the commercially available WST-1 cell proliferation assay (Takara Inc.) in accordance with the provisions of the manufacturer.

[4] = tested on: activated human peripheric T cells; assay: Proliferation of activated human peripheric T cells (WST-1 cell proliferation assay); conditions: single or simultaneous administration of I49 and APN inhibitors (Actinonin and Probestin); activated with phytohemagglutinine and phorbol-12-myristate-13-acetate; 72 h; FIG. 9
Experimental: FIG. 9: The T cells, with the exception of the untreated control, were activated by an addition of phytohemagglutinine and phorbol-12-myristate-13-acetate to the culture medium and were incubated for a time period of 72 h in the presence of the above-mentioned inhibitors single and in combination. Subsequently, the number of metabolically active cells was determined by using the commercially available WST-1 cell proliferation assay (Takara Inc.) in accordance with the provisions of the manufacturer.

[5] = tested on: human peripheric mononuclear cells (MNZ); assay: Proliferation of PHA-activated human mononuclear cells (WST-1 cell proliferation assay); conditions: 72 h; for Proliferation of human peripheric mononuclear cells (MNZ), number of metabolically active cells: single and simultaneous administration of I49 and Actinonin, PHA, FIG. 7; for Proliferation of PHA-activated human mononuclear cells (MNZ), number of metabolically active cells: single or simultaneous administration of I49 and Apstatin (X-Pro-aminopeptidase inhibitor), FIG. 10
Experimental: FIG. 7: The MNZ were incubated for a time period of 72 h without addition (control), with an addition of the mitogenic lectin phytohemagglutinin (PHA), and with the addition of PHA and the inhibitors mentioned above, respectively. Subsequently, the number amount of metabolically active cells was determined by using the commercially available WST-1 cell proliferation assay (Takara Inc.) in accordance with the provisions of the manufacturer.
FIG. 10: The mononuclear cells (MNZ) were incubated for a time period of 72 h in the presence of the inhibitors mentioned above single and in combination. Subsequently, the number of metabolically active cells was determined by using the commercially available WST-1 cell proliferation assay (Takara Inc.) in accordance with the provisions of the manufacturer.

[6] = simultaneous administration of I49 (DP IV inhibitor) and actinonine (APN inhibitor), FIG. 2
[7] = simultaneous administration of I49 (DP IV inhibitor) and Boc-Ala-thiazolidid (prolyl oligopeptidase inhibitor), FIG. 3
[8] = simultaneous administration of I49 (DP IV inhibitor) and Boc-Ala-Thiazolidid (prolyl oligopeptidase inhibitor), FIG. 4
[9] = simultaneous administration of I49 (DP IV inhibitor) and Captopril (ACE inhibitor), FIG. 5
[10] = simultaneous administration of I49 (DP IV inhibitor) and Captopril (ACE inhibitor), FIG. 6

`CCCCC[C@H](CC(=O)NO)C(=O)N[C@H](C(=O)N1CCC[C@H]1CO)C(C)C` [Actinonin] was tested, and the “DNA synthesis of human peripheric T lymphocytes” value [1] was “inhibited in a superadditive manner”, the “DNA synthesis of human peripheric mononuclear cells (MNZ)” value (“DNA synthesis … (MNZ)” for short) [2, 6] was “inhibited in a superadditive manner” and the “Proliferation of the human T cell line KARPAS-299, number of metabolically active cells” value [3] was “Inhibition of the Proliferation”. For the same compound, the “Proliferation of activated human peripheric T cells, number of metabolically active cells” value [4] was “Inhibition of the Proliferation” and the “Proliferation of human peripheric mononuclear cells (MNZ), number of metabolically active cells” value [5] was “Inhibition of the Proliferation”.
`C[C@H](NC(=O)[C@@H]1CCCN1C(=O)[C@@H]1CCCN1C(=O)[C@@H](O)[C@H](N)Cc1ccccc1)C(N)=O` [Apstatin] was tested, and the “Proliferation of PHA-activated human mononuclear cells (MNZ), number of metabolically active cells” value [5] was “Inhibition of the Proliferation”.
`CC(NC(=O)OC(C)(C)C)C(=O)N1CCSC1` (stereo not drawn) [Boc-Ala-thiazolidid] was tested, and the “DNA synthesis of human T lymphocytes” value [1, 7] was “inhibited in a superadditive manner” and the “DNA synthesis … (MNZ)” value [2, 8] was “inhibited in a superadditive manner”.
In the case of `C[C@H](CS)C(=O)N1CCC[C@H]1C(=O)O` [Captopril], the “DNA synthesis of human T lymphocytes” value [1, 9] is reported as “inhibited in a superadditive manner” and the “DNA synthesis … (MNZ)” value [2, 10] is reported as “inhibited in a superadditive manner”.
With `NC(CCCCNC(=O)OCc1ccc([N+](=O)[O-])cc1)C(=O)N1CCSC1` (stereo not shown) [I49, Lys[Z(NO2)]-thiazolidid] the “DNA synthesis of human peripheric T lymphocytes” value [1] was “inhibited in a superadditive manner”, the “DNA synthesis of human T lymphocytes” value [1, 7] was “inhibited in a superadditive manner” and the “DNA synthesis of human T lymphocytes” value [1, 9] was “inhibited in a superadditive manner”. For the same compound, the “DNA synthesis … (MNZ)” value [2, 8] was “inhibited in a superadditive manner”, the “DNA synthesis … (MNZ)” value [2, 10] was “inhibited in a superadditive manner” and the “DNA synthesis … (MNZ)” value [2, 6] was “inhibited in a superadditive manner”. For the same compound, the “Proliferation of the human T cell line KARPAS-299, number of metabolically active cells” value [3] was “Inhibition of the Proliferation”, the “Proliferation of activated human peripheric T cells, number of metabolically active cells” value [4] was “Inhibition of the Proliferation” and the “Proliferation of human peripheric mononuclear cells (MNZ), number of metabolically active cells” value [5] was “Inhibition of the Proliferation”. The “Proliferation of PHA-activated human mononuclear cells (MNZ), number of metabolically active cells” value [5] was “Inhibition of the Proliferation”.
For `CC(C)C[C@H](NC(=O)[C@@H](O)[C@H](N)Cc1ccccc1)C(=O)N1CCC[C@H]1C(=O)N1CCC[C@H]1C(=O)O` [Probestin], the “Proliferation of the human T cell line KARPAS-299, number of metabolically active cells” value [3] was “Inhibition of the Proliferation” and the “Proliferation of activated human peripheric T cells, number of metabolically active cells” value [4] was “Inhibition of the Proliferation”.

From US7485626B2, “Combinations of enzyme inhibitor-containing preparations and the use thereof” (IMTM GmbH, priority 2000, dated 2009)
